Reference: PubChem BioAssay (NCI)
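Growth conditions: 96-well plates. Treatment: test compound, 48 hours, 5 concentrations. Analysis: linear interpolation between bracketing concentrations; unreached endpoints set to highest concentration. TGI marks complete inhibition of growth.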

Test system: P388 leukemia
Experiment: NCI tumour cell line growth inhibition, 48 h

SMILES | TGI
COc1cc(O)c2c(c1)C(=O)c1cc3c(c(O)c1C2=O)C(OC1OC(C)C(O)C(O)C1OC)C(OC)C(C)(O)C3=O (configuration not stated) | 25.2 µM
CNC(=O)c1cccc2c(Nc3ccc(NS(C)(=O)=O)cc3OC)c3cccc(C)c3nc12 | < 0.0384 µM
